In patent US20080194585A1, “Fungicidal Pyrazine Derivatives” (priority 2005, published 2008):
Marks after values point to notes of the source that are not given here.

Legend:
Conditions in all cases: 100 = 100% disease control, 0 = no control
[1] = test system: Colletotrichum orbiculare; assay: Test B: cucumber Colletotrichum anthracnose, preventive spray on cucumber seedlings
[2] = test system: Botrytis cinerea; assay: Test E: tomato botrytis, preventive spray on tomato seedlings
[3] = test system: Rhizoctonia oryzae; assay: Test G: turf brown patch, preventive spray on creeping bent grass seedlings
Procedure: (the causal agent of turf brown patch) and incubated in a saturated atmosphere at 27° C. for 24 h, and then moved to a growth chamber at 27° C. for 5 days, after which disease ratings were made.

[4] = test system: Erysiphe graminis f. sp. tritici; assay: Test L: wheat powdery mildew, preventive spray on wheat seedlings
[5] = test system: Septoria nodorum; assay: Test H: wheat glum blotch, preventive spray on wheat seedlings
Procedure: (the causal agent of wheat glum blotch) and incubated in a saturated atmosphere at 20° C. for 48 h, and then moved to a growth chamber at 22° C. for 5 days, after which disease ratings were made.

[6] = test system: Pythium aphanidermatum; assay: Test A: bluegrass pythium blight, preventive spray on bluegrass seedlings
[7] = test system: Plasmopara viticola; assay: Test D: grape downy mildew, spray after inoculation of grape seedlings; assay type: in vivo
Source text: Upon removal, disease ratings were made. […] A dash (-) indicates no test results.

[8] = test system: Septoria tritici; assay: Test J: wheat leaf blotch, preventive spray on wheat seedlings; assay type: in vivo
Source text: A dash (-) indicates no test results.

[9] = test system: Phytophthora infestans; assay: whole plant or invertebrate; assay type: in vivo
[10] = test system: fusarium graminearium; assay: Test I: wheat head scab, preventive spray on wheat seedlings
Procedure: (the causal agent of wheat head scab) and incubated in a saturated atmosphere at 20° C. for 72 h, and then moved to a growth chamber at 22° C. for 5 days, after which disease ratings were made.

[11] = test system: Puccinia recondita f. sp. tritici; assay: Test K: wheat leaf rust, preventive spray on wheat seedlings

| SMILES | Test B disease control rating ([1]; 40 ppm (marked *)) | Test E disease control rating ([2]; 40 ppm (marked *)) | Test G disease control rating ([3]; 40 ppm (marked *)) | Test L disease control rating ([4]; 40 ppm (marked *)) | Test A disease control rating ([6]; 40 ppm (marked *)) | Test D disease control rating ([7]; 40 ppm (marked *)) | Test J disease control rating ([8]; 40 ppm (marked *)) | Test F disease control rating ([9]; 40 ppm (marked *)) | Test I disease control rating ([10]; 40 ppm (marked *)) | Test H disease control rating ([5]; 40 ppm (marked *)) | Test K disease control rating ([11]; 40 ppm (marked *)) | Test A disease control rating ([6]; 200 ppm) [%] | Test D disease control rating ([7]; 200 ppm) [%] | Test F disease control rating ([9]; 200 ppm) [%] | Test I disease control rating ([10]; 200 ppm) [%] | further results |
| --- | --- | --- | --- | --- | --- | --- | --- | --- | --- | --- | --- | --- | --- | --- | --- | --- |
| CC(C)Cn1c(-c2c(F)cccc2F)c(Cl)nc(-n2cccc2C#N)c1=O [compound 325] | 0* % | 0* % | 0* % | 0* % | 0* % | 0* % | 7* % | 0* % | 0* % | – | – | – | – | – | – | Test H disease control rating ([5]; 200 ppm): 0%; Test K disease control rating ([11]; 200 ppm): 0% |
| Cc1cccc(-n2c(-c3c(F)cccc3F)c(Cl)nc(-n3cccn3)c2=O)c1 [compound 326] | 0* % | 99* % | 16* % | 94* % | 0* % | 0* % | 97* % | 0* % | 0* % | 100* % | 97* % | – | – | – | – | – |
| Cc1cccc(-n2c(-c3c(F)cccc3F)c(Cl)nc(-n3ccc(C)n3)c2=O)c1 [compound 327] | 37* % | 99* % | 0* % | 78* % | 93* % | 0* % | 97* % | 0* % | 0* % | 98* % | 95* % | – | – | – | – | – |
| Cc1ccccc1-n1c(-c2c(F)cccc2F)c(Cl)nc(-n2cccn2)c1=O [compound 328] | 0* % | 99* % | 87* % | 88* % | 0* % | 0* % | 100* % | 0* % | 31* % | 100* % | 98* % | – | – | – | – | – |
| Cc1ccn(-c2nc(Cl)c(-c3c(F)cccc3F)n(-c3ccccc3C)c2=O)n1 [compound 329] | 31* % | 99* % | 26* % | 76* % | 83* % | 0* % | 100* % | 0* % | 0* % | 100* % | 96* % | – | – | – | – | – |
| O=c1c(-n2cccn2)nc(Cl)c(-c2c(F)cc(F)cc2F)n1Cc1cccc(Br)c1 [compound 344] | 0* % | 92* % | 16* % | 0* % | – | – | 100* % | – | – | 99* % | 99* % | 0 | 0 | 0 | 93 | – |
| O=c1c(-n2cccn2)nc(Cl)c(-c2c(F)cc(F)cc2F)n1Cc1ccccc1Br [compound 345] | 88* % | 98* % | 31* % | 88* % | – | – | 100* % | – | – | 99* % | 100* % | 0 | 0 | 0 | 91 | – |
| O=c1c(-n2cccn2)nc(Cl)c(-c2c(F)cc(F)cc2F)n1Cc1ccc(C(F)(F)F)cc1 [compound 346] | 0* % | 0* % | 0* % | 0* % | – | – | 13* % | – | – | 0* % | 74* % | 0 | 0 | 0 | 0 | – |
| O=c1c(-n2cccn2)nc(Cl)c(-c2c(F)cc(F)cc2F)n1Cc1cccc(C(F)(F)F)c1 [compound 347] | 0* % | 0* % | 0* % | 25* % | – | – | 83* % | – | – | 0* % | 93* % | 0 | 0 | 0 | 0 | – |
| O=c1c(-n2cccn2)nc(Cl)c(-c2c(F)cc(F)cc2F)n1Cc1ccccc1C(F)(F)F [compound 348] | 0* % | 90* % | 16* % | 44* % | – | – | 99* % | – | – | 64* % | 97* % | 0 | 0 | 0 | 0 | – |
| CCC(C)Cn1c(-c2c(F)cccc2F)c(Cl)nc(C(=O)NCCO)c1=O (centres unmarked) [compound 349] | 0* % | 0* % | 0* % | 0* % | – | – | 25* % | – | – | 0* % | 96* % | 0 | 0 | 0 | 0 | – |
| CC(C)Cn1c(-c2c(F)cccc2F)c(Cl)nc(-c2cnccn2)c1=O [compound 350] | – | – | – | – | – | – | – | – | – | – | – | 80 | 0 | 0 | 80 | Test B disease control rating ([1]; 200 ppm): 0%; Test E disease control rating ([2]; 200 ppm): 98%; Test G disease control rating ([3]; 200 ppm): 99%; Test L disease control rating ([4]; 200 ppm): 86%; Test H disease control rating ([5]; 200 ppm): 98%; Test J disease control rating ([8]; 200 ppm): 85%; Test K disease control rating ([11]; 200 ppm): 99% |
| O=c1c(-n2cccn2)nc(Cl)c(-c2c(F)cc(F)cc2F)n1-c1cccc(Br)c1 [compound 351] | 99* % | 99* % | 0* % | 100* % | – | – | 100* % | – | – | 99* % | 100* % | 0 | 0 | 0 | 78 | – |
